From US7420102B2, “Dwarfism genes and dwarf plants” (Wisconsin Alumni Research Foundation, priority 2002, dated 2008)

Experiments:
[1] = system: 69 mutant plants; test: Rescue of mutant phenotype by external application of bioactive GA3, 69 line; format: in vivo, Arabidopsis
Description: (§1) These phenotypes are similar to loss-of-function alleles of GA biosynthetic enzymes. […] Additionally, other GA forms were also substantially lower in the L10 and 69 lines (Table 4). Both mutant phenotypes could be rescued by the external application of bioactive GA3, which is consistent with the notion that the phenotypes were a result of reduced levels of bioactive GAs.

[2] = system: L10 mutant plants; test: Rescue of mutant phenotype by external application of bioactive GA3, L10 line; format: in vivo, Arabidopsis
Description: as §1

For `C=C1C[C@]23C[C@@]1(O)CC[C@H]2[C@@]12C=C[C@H](O)[C@@](C)(C(=O)O1)[C@H]2[C@@H]3C(=O)O` [GA3], which “Flowering Time LD (Number of Leaves)” value ([1]; GA3-treated 69 plants) is on record?
The value was 8 Number of Leaves.

And the Height ([1]; GA3-treated 69 plants)?
The Height was 30 cm.

And the “Internode Length” value ([1]; GA3-treated 69 plants)?
Its value is 7 mm.

And the “Number of Flowering Branches” value ([1]; GA3-treated 69 plants)?
Its value is 65.

What about the “Rescue of mutant phenotype” value ([1]; external application of GA3 to 69 mutant) of the same compound?
Its value is “rescued”.

What about the “Flowering Time LD (Number of Leaves)” value ([2]; GA3-treated L10 plants) of the same compound?
Its value is 8 Number of Leaves.

What about the Height ([2]; GA3-treated L10 plants) of the same compound?
The Height was 30 cm.

And the “Internode Length” value ([2]; GA3-treated L10 plants)?
The value was 7 mm.

And the “Number of Flowering Branches” value ([2]; GA3-treated L10 plants)?
Its value is 65.

And the “Rescue of mutant phenotype” value ([2]; external application of GA3 to L10 mutant)?
The value was “rescued”.
